Experiment [1] deals with T1, DDR1 (Homo sapiens, UniProt Q08345).
T1 construct: purchased Carna Biosciences
The experiment in a line: LanthaScreen Europium Kinase Binding assay, DDR1. As to conditions: 5 nM DDR1, 20 nM Kinase Tracer 178, 1 h at rt; Ki from IC50 by Cheng-Prusoff; read-out: Ki DDR1. How it is done:
(§1) DDR1 and DDR2 binding assays were performed using Life Technologies LanthaScreen™ Europium Kinase Binding assay. […] IC50 values were determined in GraphPad Prism 7.0 software, using 4 parameter model: log (inhibitor) vs. response. IC50 values were converted in Ki using the Cheng-Prusoff equation (Ki-IC50/(1+ [Tracer]/Kd).

Experiment [2] deals with T2, DDR2 (Homo sapiens, UniProt Q16832).
T2 construct: purchased Life Technologies
T2 sequence (Q16832 22-855): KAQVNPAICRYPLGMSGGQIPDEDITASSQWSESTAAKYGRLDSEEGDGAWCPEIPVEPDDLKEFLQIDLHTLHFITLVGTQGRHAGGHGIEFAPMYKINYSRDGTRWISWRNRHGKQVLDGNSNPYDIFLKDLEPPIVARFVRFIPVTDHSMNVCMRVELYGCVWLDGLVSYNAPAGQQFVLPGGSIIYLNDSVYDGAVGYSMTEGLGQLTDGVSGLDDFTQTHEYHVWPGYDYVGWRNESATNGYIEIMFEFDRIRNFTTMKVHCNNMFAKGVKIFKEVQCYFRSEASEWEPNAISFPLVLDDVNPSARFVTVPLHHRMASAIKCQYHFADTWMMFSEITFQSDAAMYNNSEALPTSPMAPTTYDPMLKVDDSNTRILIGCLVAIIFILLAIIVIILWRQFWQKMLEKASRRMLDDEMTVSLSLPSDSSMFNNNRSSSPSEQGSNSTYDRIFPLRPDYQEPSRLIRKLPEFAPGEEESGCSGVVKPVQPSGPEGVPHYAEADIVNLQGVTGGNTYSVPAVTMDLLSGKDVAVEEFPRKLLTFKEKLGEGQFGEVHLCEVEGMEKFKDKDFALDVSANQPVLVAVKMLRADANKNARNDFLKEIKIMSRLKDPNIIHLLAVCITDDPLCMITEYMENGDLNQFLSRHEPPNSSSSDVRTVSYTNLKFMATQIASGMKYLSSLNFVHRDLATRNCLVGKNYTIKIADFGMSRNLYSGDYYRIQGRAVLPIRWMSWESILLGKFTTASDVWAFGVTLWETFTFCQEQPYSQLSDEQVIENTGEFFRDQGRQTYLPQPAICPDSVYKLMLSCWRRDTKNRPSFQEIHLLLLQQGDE
Description: LanthaScreen Europium Kinase Binding assay, DDR2. The following applies: 5 nM DDR2, 10 nM Kinase Tracer 178, 1 h at rt; Ki from IC50 by Cheng-Prusoff; read-out: Ki DDR2. The procedure: as §1

A value given as a limit tells only on which side of the number the result lay.

T1 sequence (Q08345 19-913): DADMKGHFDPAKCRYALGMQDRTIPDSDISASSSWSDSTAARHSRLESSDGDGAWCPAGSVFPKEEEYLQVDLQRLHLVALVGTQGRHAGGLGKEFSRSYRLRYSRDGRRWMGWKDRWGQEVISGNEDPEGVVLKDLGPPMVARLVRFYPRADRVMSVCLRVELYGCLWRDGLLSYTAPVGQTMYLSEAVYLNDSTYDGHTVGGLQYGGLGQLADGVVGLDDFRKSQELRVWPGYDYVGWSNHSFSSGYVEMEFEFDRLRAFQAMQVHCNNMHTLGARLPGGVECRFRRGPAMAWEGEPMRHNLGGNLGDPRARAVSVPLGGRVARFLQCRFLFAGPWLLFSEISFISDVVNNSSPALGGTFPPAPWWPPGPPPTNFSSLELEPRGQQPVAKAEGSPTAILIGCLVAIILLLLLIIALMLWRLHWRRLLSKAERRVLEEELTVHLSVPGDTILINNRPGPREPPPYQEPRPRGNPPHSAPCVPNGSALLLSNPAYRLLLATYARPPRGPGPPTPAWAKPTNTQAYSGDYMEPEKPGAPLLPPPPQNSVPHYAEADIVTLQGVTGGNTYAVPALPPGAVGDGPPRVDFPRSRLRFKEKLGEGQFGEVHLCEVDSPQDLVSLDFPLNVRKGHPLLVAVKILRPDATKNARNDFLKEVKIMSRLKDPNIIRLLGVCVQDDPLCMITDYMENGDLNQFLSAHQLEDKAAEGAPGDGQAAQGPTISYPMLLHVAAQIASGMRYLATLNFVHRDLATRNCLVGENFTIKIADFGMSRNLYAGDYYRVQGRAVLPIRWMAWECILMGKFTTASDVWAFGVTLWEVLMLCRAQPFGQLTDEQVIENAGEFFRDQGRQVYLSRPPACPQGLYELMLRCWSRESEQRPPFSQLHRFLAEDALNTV

For the compound `Cc1ncc(NC(=O)N(C)C2CC3(C2)CN(C(=O)c2cnn4ccn(C)c24)C3)cc1C(F)(F)F` [Example 180, 1-methyl-1-(2-(1-methyl-1H-imidazo[1,2-b]pyrazole-7-carbonyl)-2-azaspiro[3.3]heptan-6-yl)-3-(6-methyl-5-(trifluoromethyl)pyridin-3-yl)urea], the Ki in experiment [1] is under 5 nM; in experiment [2], 5 to 25 nM.

As for `CN(C(=O)Nc1cccc(C(F)(F)F)c1)C1CC2(C1)CN(C(=O)c1ncnc3[nH]ccc13)C2` [Example 247, 1-(2-(7H-pyrrolo[2,3-d]pyrimidine-4-carbonyl)-2-azaspiro[3.3]heptan-6-yl)-1-methyl-3-(3-(trifluoromethyl)phenyl)urea], the figures for the inhibitory constant (Ki) in experiment [1] and in experiment [2] were under 5 nM and 5 to 25 nM, respectively.

As to `CN(C(=O)Nc1cncc(C(F)(F)F)c1)C1CC2(C1)CN(C(=O)c1cnn3ccc(N)cc13)C2` [Example 244, 1-(2-(5-aminopyrazolo[1,5-a]pyridine-3-carbonyl)-2-azaspiro[3.3]heptan-6-yl)-1-methyl-3-(5-(trifluoromethyl)pyridin-3-yl)urea], the figures for the Ki in experiment [1] and in experiment [2] were under 5 nM and 5 to 25 nM, respectively.

On to `Cc1nc(NC(=O)N(C)C2CC3(C2)CN(C(=O)c2cnn4ccn(C)c24)C3)cc(C(F)(F)F)n1` [Example 290, 1-methyl-1-(2-(1-methyl-1H-imidazo[1,2-b]pyrazole-7-carbonyl)-2-azaspiro[3.3]heptan-6-yl)-3-(2-methyl-6-(trifluoromethyl)pyrimidin-4-yl)urea], for which the Ki in experiment [1] was in the range of 5 to 25 nM; in experiment [2], 25 to 100 nM.

On to `O=C(Nc1cccc(C(F)(F)F)c1)NC1CC2(C1)CN(C(=O)c1cnn3ccncc13)C2` [Example 2, 1-(2-(pyrazolo[1,5-a]pyrazine-3-carbonyl)-2-azaspiro[3.3]heptan-6-yl)-3-(3-(trifluoromethyl)phenyl)urea], for which the Ki is under 5 nM in experiment [1] and 5 to 25 nM in experiment [2].

`CN(C(=O)Nc1cc(F)cc(C(F)(F)F)c1)C1CC2(C1)CN(C(=O)c1cnn3ccn(C)c13)C2` [Example 64, 3-(3-fluoro-5-(trifluoromethyl)phenyl)-1-methyl-1-(2-(1-methyl-1H-imidazo[1,2-b]pyrazole-7-carbonyl)-2-azaspiro[3.3]heptan-6-yl)urea]: the Ki is under 5 nM in experiment [1] and 5 to 25 nM in experiment [2].

For `CN(C(=O)Nc1cc(C(F)(F)F)cc(Cl)n1)C1CC2(C1)CN(C(=O)c1cnn3ccn(C)c13)C2` [Example 267, 3-(6-chloro-4-(trifluoromethyl)pyridin-2-yl)-1-methyl-1-(2-(1-methyl-1H-imidazo[1,2-b]pyrazole-7-carbonyl)-2-azaspiro[3.3]heptan-6-yl)urea], the Ki in experiment [1] and in experiment [2] was under 5 nM each time.

For `Cn1ccn2ncc(C(=O)N3CC4(CC(NC(=O)Nc5cc(C(F)(F)F)ccc5Cl)C4)C3)c12` [Example 45, 1-(2-chloro-5-(trifluoromethyl)phenyl)-3-(2-(1-methyl-1H-imidazo[1,2-b]pyrazole-7-carbonyl)-2-azaspiro[3.3]heptan-6-yl)urea], the Ki in experiment [1] and in experiment [2] was under 5 nM throughout.

Regarding `CN(C(=O)Nc1cc(OC(F)F)ccn1)C1CC2(C1)CN(C(=O)c1cnn3ccn(C)c13)C2` [Example 177, 3-(4-(difluoromethoxy)pyridin-2-yl)-1-methyl-1-(2-(1-methyl-1H-imidazo[1,2-b]pyrazole-7-carbonyl)-2-azaspiro[3.3]heptan-6-yl)urea], the Ki in experiment [1] is under 5 nM; in experiment [2] it was 25 to 100 nM.

For the origin of these results see US20260285855A1, “HETEROARYL DERIVATIVES AS DDRS INHIBITORS” (CHIESI FARMACEUTICI S.P.A., priority 2023, published 2026).
